Reference: patent US20100105707A1, “METHOD OF TREATING OR PREVENTING OXIDATIVE STRESS-RELATED DISEASE” (The United States of America, priority 2006, published 2010)
In brackets after ≈: the same amount, converted by molar mass.

Columns and labels:
[1] = Water solubility in cold water; format: physicochemical
Protocol: Commercially available derivatives are obtained from Sigma-Aldrich (St. Louis, Mo.). The methods used for the synthesis of methyl- and sulfur-derivatives of uric acid are similar to those described previously (Beaman et al., J. Org. Chem., 27, 986-990 (1962) and Maruyama et al., Nucleosides, Nucleotides, Nucleic Acids, 19, 1193-1203 (2000)) and structures are confirmed by ^13C nuclear magnetic resonance (NMR) and ultra-violet (UV) spectral analyses. Uric acid analogs are assayed by high performance liquid chromatography (HPLC) and found to be of >97% purity.

[2] = Pharmacokinetics: plasma and brain levels after intravenous administration; format: in vivo, C57BL/6 mice; details: mice; for Kp: male, C57BL/6, mouse, brain (cerebral cortical tissue) / plasma, early time points (15-30 min), read-out: brain tissue concentration as percentage of plasma concentration; for detection in the brain: equimolar to 10 mg/kg uric acid, 15, 30, 60 and 120 min; for brain concentration time course versus plasma: through the 120 min time point
Protocol: Mice are administered intravenously 10 mg/kg ([…]) of uric acid as a reference compound and equimolar doses of its analogs (sUA4-2,6,8 trithio uric acid, 12.9 mg/kg; mUA2-1,7 dimethyl uric acid, 11.7 mg/kg; sUA2-6,8 dithio uric acid, 11.9 mg/kg). Three month-old male C57BL/6 mice are injected with a compound and are euthanized 15, 30, 60 or 120 min later (1 mouse/time point/compound). Blood and brain tissues are rapidly removed, frozen on dry ice and kept at −80° C. before quantification of uric acid analogs. Plasma and cerebral cortical tissues are extracted in 10 volumes of 0.5 M perchloric acid and 1 mM ethylenediamine tetraacetic acid (EDTA). Levels of uric acid analogs in the extracts are quantified by HPLC methods employing a 25 cm RP C18 column, 25 mM KH2PO4 buffer (pH=4.6) with 1 ml/min flow rate and UV diode array detection.
Mice that are administered mUA2, sUA2 or sUA4 intravenously are euthanized at increasing time points (15, 30, 60 and 120 min) and levels of the compounds in plasma and brain tissue are measured.

[3] = test system: cultured hippocampal neurons; test: Oxygen and glucose deprivation (OGD) of cultured hippocampal neurons; format: cell-based, rat; details: compared to neurons in control cultures; FIG. 2
Protocol: FIG. 2 illustrates that compounds of formula (I) protect cultured hippocampal neurons against ischemia-like conditions in an embodiment of the invention. Neuronal survival is quantified and values are the mean and SEM (n=8-10 cultures). *p<0.05 compared to the vehicle/OGD cultures. Synaptosomes are prepared from the cerebral cortex of 2-3 month-old adult male Sprague-Dawley rats and are cryopreserved using methods described previously (Begley et al., Brain Res. Protoc., 3, 76-82 (1998)). After thawing, cryopreserved synaptosomes are washed twice with Locke's buffer and plated in 24-well plates at a protein concentration of 250 μg per well. After a 30 min period to permit attachment of the synaptosomes to the substrate, synaptomoses are incubated for 1 h with compounds of formula (I) (1-10 μM), and then exposed for 4 h to freshly prepared 50 μM Fe^2+ (FeSO4). After an additional 30 min incubation in the presence of 10 μM dihydrorhodamine 123 (DHR), a probe for ROS which fluoresces when oxidized (Keller et al., J. Neurochem., 69, 273-284 (1997)), the synaptosomes are washed twice with Locke's buffer and levels of fluorescence are quantified using a fluorescence plate reader (488 nm excitation and 510 emission wavelengths). Fluorescence values for wells exposed to experimental treatments are expressed as a percentage of the mean value for untreated control wells. […] Methods for preparation and maintenance of cultures of PC12 cells and primary embryonic rat hippocampal neurons have been described previously (Furukawa et al., J. Neurosci., 17, 8178-8186 (1997) and Chan et al., J. Biol. Chem., 279, 28733-28743 (2004)). Cells are plated into polyethylenimine-coated plastic 96-well culture plates containing Neurobasal medium with B27 supplements. Experiments are performed in 7-8 day-old cultures (hippocampal neurons) or Dulbecco's modified eagle's medium (DMEM) with 10% fetal bovine serum (PC12 cells). […] Cell viability is quantified by counting viable neurons in premarked microscope fields prior to and following experimental treatment and then calculating percent survival.

[4] = test system: mouse model of focal ischemic stroke; test: Focal cerebral ischemia-reperfusion (middle cerebral artery occlusion) model; format: in vivo, C57BL/6 mice; details: administered 1 h after ischemia onset; for functional outcome (neurological deficit score): FIG. 5A; for brain damage: FIG. 5B
Protocol: FIG. 4 illustrates that a compound of formula (I) improves functional outcome (e.g., ambulation) and reduces brain damage in a mouse model of focal ischemic stroke in an embodiment of the invention. In FIG. 4A neurological function is scored at 24, 48 and 72 hours post-stroke. In FIG. 4B infarct volume is quantified at 72 hours post-stroke. Values are the mean and SEM (n=8-12 mice). *p<0.001 compared to sham. +p<0.01 compared to vehicle.
FIG. 5 illustrates that compounds of formula (I) improve functional outcome and reduces brain damage in a mouse model of focal ischemic stroke in an embodiment of the invention. In FIG. 5A, neurological function is scored at 24, 48 and 72 hours post-stroke. In FIG. 5B, infarct volume is quantified at 72 hours post-stroke. Values are the mean and SEM (n=8-12 mice). *p<0.001 compared to sham. +p<0.01 compared to vehicle.
Three month-old male C57BL/6 mice are maintained on a 12 h light/12 h dark cycle with continuous access to food and water. The method for subjecting the mice to middle cerebral artery occlusion-reperfusion has been described previously (Arumugam et al., Am. J. Physiol. Heart Circ. Physiol., 287, H2555-2560 (2004)). Mice are anesthetized with isofluorane, a midline incision is made in the neck, and the left external carotid and pterygopalatine arteries are isolated and ligated with 5-0 silk thread. The internal carotid artery (ICA) is occluded at the peripheral site of the bifurcation of the internal carotid artery and the pterygopalatine artery with a small clip and the common carotid artery is ligated with 5-0 silk thread. The external carotid artery is cut, and a 6-0 nylon monofilament with a tip that is blunted (0.2-0.22 mm) with a coagulator is inserted into the external carotid artery. After the clip at the ICA is removed, the nylon thread is advanced into the middle cerebral artery until light resistance is felt. The nylon thread and the common carotid artery ligature are removed after 1 h of occlusion to initiate reperfusion. In the sham group, these arteries are visualized but not disturbed. Mice are administered either uric acid analogs of formula (I) or vehicle (dimethylsulfoxide) by infusion into the femoral vein (10 μl infused over a 2 min period) either 30 min prior to or 60 min after the onset of middle cerebral artery (MCA) occlusion. In a separate set of experiments anesthetized animals from all groups (4-6 mice per group) undergo cerebral blood flow (CBF) measurements using a laser Doppler perfusion monitor. All blood flow measurements are conducted with the mouse fixed in a plastic frame with the probe placed in the region of cerebral cortex perfused by the middle cerebral artery. These procedures are approved by the National Institute on Aging Animal Care and Use Committee.
The functional consequences of focal cerebral ischemia-reperfusion injury are evaluated by using a five-point neurological deficit score (0, no deficit; 1, failure to extend right paw; 2, circling to the right; 3, falling to the right; and 4, unable to walk spontaneously) and are assessed in a blinded fashion. At 72 h of reperfusion, the mice are killed with a lethal dose of isofluorane. The brains are immediately removed and placed into PBS (4° C.) for 15 min, and 2-mm coronal sections are cut with a tissue cutter. The brain sections are stained with 2% 2,3,5-triphenyltetrazolium chloride in phosphate buffer at 37° C. for 15 min. The stained sections are photographed, and the digitized images are used for analysis. The borders of the infarct in each brain slice are outlined and the area quantified using a NIH image 6.1 software. To correct for brain swelling, the infarct area is determined by subtracting the area of undamaged tissue in the left hemisphere from that of the intact contralateral hemisphere. Infarct volume is calculated by integration of infarct areas for all slices of each brain.

[5] = test system: ROS in cerebral cortex synaptosomes; test: Synaptosome antioxidant assay (Fe2+-induced ROS, dihydrorhodamine 123); format: cell-based, Sprague-Dawley rats; details: 1-10 μM, 1 h pretreatment, then 50 μM Fe2+ for 4 h; FIG. 1B
Protocol: FIG. 1A depicts structures of uric acid and exemplary compounds of formula (I). FIG. 1B illustrates antioxidant activities of uric acid and compounds of formula (I) as quantified using a synaptosome assay in an embodiment of the invention. Levels of reactive oxygen species (ROS) are measured and values are expressed as a percentage of ROS present in Fe^2+-treated control synaptosomes (mean and SEM, n=4 experiments). *p<0.05, **p<0.01 compared to the control value.
Synaptosomes are prepared from the cerebral cortex of 2-3 month-old adult male Sprague-Dawley rats and are cryopreserved using methods described previously (Begley et al., Brain Res. Protoc., 3, 76-82 (1998)). After thawing, cryopreserved synaptosomes are washed twice with Locke's buffer and plated in 24-well plates at a protein concentration of 250 μg per well. […] After an additional 30 min incubation in the presence of 10 μM dihydrorhodamine 123 (DHR), a probe for ROS which fluoresces when oxidized (Keller et al., J. Neurochem., 69, 273-284 (1997)), the synaptosomes are washed twice with Locke's buffer and levels of fluorescence are quantified using a fluorescence plate reader (488 nm excitation and 510 emission wavelengths). Fluorescence values for wells exposed to experimental treatments are expressed as a percentage of the mean value for untreated control wells.

[6] = test system: PC12 cells; test: PC12 cell death induced by MPP+; format: cell-based; details: concentrations of 0.1 to 10 μM; FIGS. 3A and 3B
Description: (§1) FIG. 3 illustrates that uric acid and a compound of formula (I) protect cultured neural cells against oxidative and excitotoxic injury in an embodiment of the invention. Cultured PC12 cells are pretreated with uric acid (FIG. 3A) or mUA3 (FIG. 3B). Cultured hippocampal neurons are pretreated with uric acid (FIG. 3C) or mUA3 (FIG. 3D). Cell survival is quantified and values are the mean and SEM of 4-8 cultures. *p<0.05 compared to 0 uric acid or mUA3 concentration.
(§2) Methods for preparation and maintenance of cultures of PC12 cells and primary embryonic rat hippocampal neurons have been described previously (Furukawa et al., J. Neurosci., 17, 8178-8186 (1997) and Chan et al., J. Biol. Chem., 279, 28733-28743 (2004)). Cells are plated into polyethylenimine-coated plastic 96-well culture plates containing Neurobasal medium with B27 supplements. Experiments are performed in 7-8 day-old cultures (hippocampal neurons) or Dulbecco's modified eagle's medium (DMEM) with 10% fetal bovine serum (PC12 cells). Hippocampal neurons and PC12 cells are plated 7 days and 3 days prior to experiments, respectively. […] Cell viability is quantified by counting viable neurons in premarked microscope fields prior to and following experimental treatment and then calculating percent survival. […]

[7] = test system: PC12 cells; test: PC12 cell death induced by Fe2+; format: cell-based; details: concentrations of 0.1 to 10 μM; FIGS. 3A and 3B
Description: as §1, §2

[8] = test system: primary hippocampal neurons; test: Hippocampal neuron death induced by Fe2+; format: cell-based, rat; details: FIGS. 3C and 3D
Description: as §1, §2

[9] = test system: primary hippocampal neurons; test: Hippocampal neuron death induced by glutamate excitotoxicity; format: cell-based, rat; details: FIGS. 3C and 3D
Description: as §1, §2

| Compound | solubility [1] [µg/mL] | Kp [2] | detection in the brain [2] | brain concentration time course versus plasma [2] | resistance to OGD induced death [3] | functional outcome (neurological deficit score) [4] | brain damage [4] | levels of ROS in synaptosomes [5] | protection of PC12 cells against MPP+ [6] | protection of PC12 cells against Fe2+ [7] | protection of primary hippocampal neurons against death induced by Fe2+ [8] | protection of primary hippocampal neurons against glutamate excitotoxicity [9] |
| --- | --- | --- | --- | --- | --- | --- | --- | --- | --- | --- | --- | --- |
| Cn1c(=O)[nH]c2[nH]c(=O)n(C)c2c1=O [mUA2, 1,7 dimethyl uric acid] | 2000 (≈ 10.2 mM) | ~0.1 | detected in the brain at all time points examined | remain elevated while plasma concentrations decrease progressively | significantly more resistant | significantly improve functional outcome | decrease brain damage |  |  |  |  |  |
| S=c1[nH]c(=S)c2[nH]c(=S)[nH]c2[nH]1 [sUA4, 2,6,8 trithio uric acid] | 3000 (≈ 13.9 mM) | ~0.1 | detected in the brain at all time points examined | remain elevated while plasma concentrations decrease progressively | significantly more resistant | significantly improve functional outcome | decrease brain damage |  |  |  |  |  |
| O=c1[nH]c(=O)c2[nH]c(=O)[nH]c2[nH]1 [uric acid] | 100 (≈ 0.595 mM) |  |  |  |  |  |  | significantly diminished | protected | protected | protected | protected |
